Data on 22 molecules can be found in patent US20250154109A1, “SODIUM CHANNEL BLOCKING COMPOUNDS, DERIVATIVES THEREOF, AND METHODS OF THEIR USE” (LATIGO BIOTHERAPEUTICS, INC, priority 2022, published 2025).

The target of the assay is human Nav1.8 (Homo sapiens, UniProt Q9Y5Y9). Put plainly: SyncroPatch384PE assay (automated patch clamp). It counts as cell-based. The settings on record: human Nav1.8/b3 CHO cells. As for the experimental part: Compounds were tested on recombinant human Nav1.8/b3 stably transfected CHO cells using the SyncroPatch384PE system (Nanion Technologies), an automated patch clamp device. Cells were cultured at 37° C./5% CO2 in Ham's F-12 supplemented with 10% fetal bovine serum, 100 U/mL penicillin G sodium, […] streptomycin sulfate and selection antibiotics (0.01 mg/mL Blasticidin, 0.4 mg/mL Zeocin and 0.25 mg/mL Hygromycin). On the day of the recordings, cells in culture dishes were washed twice with Hank's Balanced Salt Solution (HBSS) and treated with Accutase for approximately 20 minutes. Immediately before use in the SynchroPatch384PE using an 8-hole NPC-384 chip, the cells were washed in HBSS to remove the Accutase and re-suspended in extracellular solution. All experiments were performed at ambient temperature. Intracellular solution contained (mM): CsCl, 50; CsF, 90; MgCl2, 5; EGTA, 1; HEPES, 10; pH adjusted to 7.2 with CsOH. Extracellular solution contained (mM): NaCl, 137; KCl, 4.0; CaCl2), 3.8; MgCl2, 1; HEPES, 10; Glucose, 10; pH adjusted to 7.4 with NaOH. 100 nM tetrodotoxin (TTX) was added to the extracellular solution to block endogenous TTX-sensitive sodium currents.
human Nav1.8, sequence (Q9Y5Y9 whole entry): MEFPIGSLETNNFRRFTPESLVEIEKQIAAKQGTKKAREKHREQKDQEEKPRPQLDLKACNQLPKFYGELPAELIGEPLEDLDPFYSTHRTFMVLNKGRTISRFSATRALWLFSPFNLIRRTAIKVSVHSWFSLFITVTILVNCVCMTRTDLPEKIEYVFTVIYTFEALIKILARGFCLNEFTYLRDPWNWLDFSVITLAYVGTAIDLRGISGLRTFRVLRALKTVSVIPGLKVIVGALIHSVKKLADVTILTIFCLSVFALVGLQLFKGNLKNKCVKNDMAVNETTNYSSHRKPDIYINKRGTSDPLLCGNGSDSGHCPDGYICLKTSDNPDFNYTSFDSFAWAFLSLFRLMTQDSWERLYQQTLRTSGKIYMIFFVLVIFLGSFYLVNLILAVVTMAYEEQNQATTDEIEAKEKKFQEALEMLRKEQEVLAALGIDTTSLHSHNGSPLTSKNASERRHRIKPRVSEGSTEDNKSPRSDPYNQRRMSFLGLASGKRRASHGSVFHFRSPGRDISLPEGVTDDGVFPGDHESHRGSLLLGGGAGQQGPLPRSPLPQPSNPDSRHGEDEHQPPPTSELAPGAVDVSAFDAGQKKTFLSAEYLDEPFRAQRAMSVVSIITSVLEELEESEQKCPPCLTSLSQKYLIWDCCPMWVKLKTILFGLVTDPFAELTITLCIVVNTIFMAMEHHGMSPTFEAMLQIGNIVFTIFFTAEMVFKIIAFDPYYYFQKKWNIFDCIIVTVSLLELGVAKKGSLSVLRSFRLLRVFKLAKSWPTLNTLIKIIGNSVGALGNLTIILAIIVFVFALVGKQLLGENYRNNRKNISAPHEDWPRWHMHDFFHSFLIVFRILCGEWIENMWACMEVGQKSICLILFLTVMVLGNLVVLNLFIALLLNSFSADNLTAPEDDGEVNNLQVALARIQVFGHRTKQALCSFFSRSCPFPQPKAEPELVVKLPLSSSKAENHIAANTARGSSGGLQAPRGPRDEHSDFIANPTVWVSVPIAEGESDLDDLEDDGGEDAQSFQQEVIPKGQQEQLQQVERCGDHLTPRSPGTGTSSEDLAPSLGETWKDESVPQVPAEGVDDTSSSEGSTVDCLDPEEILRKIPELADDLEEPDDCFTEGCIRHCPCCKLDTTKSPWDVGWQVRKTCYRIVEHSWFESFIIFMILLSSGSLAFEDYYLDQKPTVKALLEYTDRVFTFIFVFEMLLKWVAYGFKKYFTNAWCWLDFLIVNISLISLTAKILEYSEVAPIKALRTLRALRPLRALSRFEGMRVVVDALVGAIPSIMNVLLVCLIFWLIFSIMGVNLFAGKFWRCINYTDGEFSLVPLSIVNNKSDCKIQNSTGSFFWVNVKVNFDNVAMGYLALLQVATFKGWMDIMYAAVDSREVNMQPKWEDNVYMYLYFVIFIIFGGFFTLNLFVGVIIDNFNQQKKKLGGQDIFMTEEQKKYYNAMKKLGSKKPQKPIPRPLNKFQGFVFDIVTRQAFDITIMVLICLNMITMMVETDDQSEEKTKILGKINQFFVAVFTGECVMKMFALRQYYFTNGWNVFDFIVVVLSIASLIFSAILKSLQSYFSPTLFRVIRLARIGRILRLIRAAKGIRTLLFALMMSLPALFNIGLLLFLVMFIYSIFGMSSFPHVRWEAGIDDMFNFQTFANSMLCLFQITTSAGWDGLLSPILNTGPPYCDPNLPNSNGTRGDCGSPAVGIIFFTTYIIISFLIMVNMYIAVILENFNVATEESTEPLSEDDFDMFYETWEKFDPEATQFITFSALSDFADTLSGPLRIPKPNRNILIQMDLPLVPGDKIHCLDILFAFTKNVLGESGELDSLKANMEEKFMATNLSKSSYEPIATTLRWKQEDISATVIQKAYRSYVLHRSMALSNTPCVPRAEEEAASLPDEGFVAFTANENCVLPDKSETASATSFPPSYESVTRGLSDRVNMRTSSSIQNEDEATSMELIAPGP
Compounds were tested in quadruplicate in 0.3% DMSO and 0.03% pluronic Acid. Compounds were diluted 1:3.33 in extracellular solution to create an 8-point concentration response curve. Each plate contained a historical positive control and up to ten compounds. 300 μM tetracaine and 0.3% DMSO+0.03% pluronic acid were used as high and low controls respectively.
Whole cell patch clamp recordings were conducted according to Nanion's standard procedure for SyncroPatch384PE®. Cells were held at a holding potential of −120 mV. A depolarization step to 10 mV for 30 ms was applied (P1 measurement), followed by a hyperpolarization step to −100 mV for 100 ms. An inactivation step at −35 mV for 10 sec was applied before stepping to −100 mV for 20 ms, followed by a step to 10 mV for 30 ms (P2 measurement) and then back to −100 mV for 30 ms. Sweep interval was 15 sec. Following establishment of the whole-cell configuration in extracellular solution, cells were washed in extracellular solution containing 0.3% DMSO and 0.03% pluronic acid to stabilize the baseline current. Compounds were then applied by the SynchroPatch384 PE system into each well and the current was recorded for five minutes in extracellular solution, followed by application of tetracaine to achieve full block at the end of experiment. The potency of the compounds was assessed on two read-outs, resting state block (P1 measurement) or inactivated state block (P2 measurement) to obtain IC50 values. Values were normalized to high (tetracaine) and low (DMSO+pluronic acid) controls.
Examples 1 to 219 and Examples 225 to 236 are assayed using SyncroPatch384PE assay described above.

The mark [1] stands for this setting: inactivated state block (P2 measurement), read-out: P2 IC50.
[2] abbreviates: resting state block (P1 measurement), read-out: P1 IC50.

Where a name gives a salt, the structure may show the parent alone. Read-outs that look alike come from different tables or passages of the source. Bounds are passed on as bounds.

Take `Cc1c(C(F)(F)F)nnc(N2CCCC(F)(F)CC2)c1C(=O)Nc1cccc([S@@](C)(=O)=NC(=O)CN)c1` [Example 177, (R)-3-(4,4-difluoroazepan-1-yl)-N-(3-(N-glycyl-S-methylsulfonimidoyl)phenyl)-5-methyl-6-(trifluoromethyl)pyridazine-4-carboxamide]: the 50% inhibitory concentration (IC50) runs as follows: under setting [1], not above 5 nM; under setting [2], not above 5 nM.

Consider `COc1ccc(-c2nnc(N3CCCC(F)(F)CC3)c(C(=O)Nc3cccc([S@@](C)(=N)=O)c3)c2C)cc1` (single isomer, unassigned) [Example 137], for which the IC50 under setting [1] is more than 200 nM and the IC50 under setting [2] is more than 200 nM.

Regarding `Cc1nc(N2CCCC(F)(F)CC2)c(C(=O)Nc2cccc([S@](C)(=N)=O)c2)c(C)c1Br` [Example 172, (R)-5-bromo-2-(4,4-difluoroazepan-1-yl)-4,6-dimethyl-N-(3-(S-methylsulfonimidoyl)phenyl)nicotinamide], the IC50 was not above 5 nM under setting [1] and not above 5 nM under setting [2].

On to `Cc1c(C#CCO)cnc(N2CCCC(F)(F)CC2)c1C(=O)Nc1cccc([S@](C)(=N)=O)c1` [Example 123, (R)-2-(4,4-difluoroazepan-1-yl)-5-(3-hydroxyprop-1-yn-1-yl)-4-methyl-N-(3-(S-methylsulfonimidoyl)phenyl)nicotinamide], for which the IC50 was more than 200 nM under setting [1] and more than 200 nM under setting [2].

`Cc1c(-c2ccccc2)cnc(N2CCCC(F)(F)CC2)c1C(=O)Nc1cccc(S(C)(=N)=O)c1` (centres unmarked) [Example 42, 2-(4,4-Difluoroazepan-1-yl)-4-methyl-N-(3-(S-methylsulfonimidoyl)phenyl)-5-phenylnicotinamide]: the IC50 under setting [1] is not above 5 nM and the IC50 under setting [2] was not above 5 nM.

Regarding `Cc1c(-c2cnn(C)c2)cnc(N2CCCC(F)(F)CC2)c1C(=O)Nc1cccc([S@@](C)(=O)=NC(=O)C2(N)CC2)c1` [Example 53, (R)-N-(3-(N-(1-aminocyclopropane-1-carbonyl)-S-methylsulfonimidoyl)phenyl)-2-(4,4-difluoroazepan-1-yl)-4-methyl-5-(1-methyl-1H-pyrazol-4-yl)nicotinamide formate], the IC50 by setting is: under setting [1], 5 to 50 nM; under setting [2], 5 to 50 nM.

As to `Cc1c(C(F)(F)F)nnc(N2CCCC(F)(F)CC2)c1C(=O)Nc1cccc([S@](C)(=N)=O)c1` [Example 28, (R)-3-(4,4-Difluoroazepan-1-yl)-5-methyl-N-(3-(S-methylsulfonimidoyl)phenyl)-6-(trifluoromethyl)pyridazine-4-carboxamide], the IC50 was 5 to 50 nM under setting [1] and 5 to 50 nM under setting [2].

In the case of `CNCC(=O)N=[S@](C)(=O)c1cccc(NC(=O)c2c(N3CCCC(F)(F)CC3)ncc(-c3cc(F)cc(F)c3)c2C)c1` [Example 62, (R)-2-(4,4-difluoroazepan-1-yl)-5-(3,5-difluorophenyl)-4-methyl-N-(3-(S-methyl-N-(methylglycyl)sulfonimidoyl)phenyl)nicotinamide], the half-maximal inhibitory concentration (IC50) under setting [1] is not above 5 nM and the IC50 under setting [2] was not above 5 nM.

Regarding `Cc1c(-c2cccc(F)c2)cnc(N2CCCC(F)(F)CC2)c1C(=O)Nc1cccc(S(C)(=N)=O)c1` (centres unmarked) [Example 82, 2-(4,4-difluoroazepan-1-yl)-5-(3-fluorophenyl)-4-methyl-N-(3-(S-methylsulfonimidoyl)phenyl)nicotinamide], the half-inhibitory concentration (IC50) was not above 5 nM under setting [1] and not above 5 nM under setting [2].

With `Cc1c(C(F)(F)F)cnc(N2CCCC(F)(F)CC2)c1C(=O)Nc1cccc([S@](C)(=N)=O)c1` [Example 164, (R)-2-(4,4-difluoroazepan-1-yl)-4-methyl-N-(3-(S-methylsulfonimidoyl)phenyl)-5-(trifluoromethyl)nicotinamide], the IC50 was not above 5 nM under setting [1] and not above 5 nM under setting [2].

Consider `Cc1ncc(-c2cnc(N3CCCC(F)(F)CC3)c(C(=O)Nc3cccc([S@](C)(=N)=O)c3)c2C)o1` [Example 178, (R)-2-(4,4-difluoroazepan-1-yl)-4-methyl-5-(2-methyloxazol-5-yl)-N-(3-(S-methylsulfonimidoyl)phenyl)nicotinamide], for which the IC50 lay within 5 to 50 nM under setting [1] and 5 to 50 nM under setting [2].

For the molecule `Cc1c(C(F)(F)F)cnc(N2CCCC(F)(F)CC2)c1C(=O)Nc1cccc([S@@](C)(=O)=NC(=O)[C@@H](C)O)c1` [Example 193, 2-(4,4-difluoroazepan-1-yl)-N-(3-((R)-N-((R)-2-hydroxypropanoyl)-S-methylsulfonimidoyl)phenyl)-4-methyl-5-(trifluoromethyl)nicotinamide], the IC50 by setting is: under setting [1], not above 5 nM; under setting [2], not above 5 nM.

As to `O=C(Nc1cc[nH]c(=O)c1)c1nnc(C(F)(F)F)cc1N1CCCCCC1` [Example 36, 4-(Azepan-1-yl)-N-(2-oxo-1,2-dihydropyridin-4-yl)-6-(trifluoromethyl)pyridazine-3-carboxamide], the IC50 under setting [1] was more than 200 nM and the IC50 under setting [2] is more than 200 nM.

With `Cc1nc(N2CCCC(F)(F)CC2)c(C(=O)Nc2ccnc(S(=N)(N)=O)c2)cc1C(F)(F)F` (centres unmarked) [Example 114, 2-(4,4-difluoroazepan-1-yl)-6-methyl-N-(2-sulfamidimidoylpyridin-4-yl)-5-(trifluoromethyl)nicotinamide], the IC50 was not above 5 nM under setting [1] and not above 5 nM under setting [2].

On to `Cc1c(C#N)c(C#N)nc(N2CCCC(F)(F)CC2)c1C(=O)Nc1cccc([S@](C)(=N)=O)c1` [Example 170, (R)-5,6-dicyano-2-(4,4-difluoroazepan-1-yl)-4-methyl-N-(3-(S-methylsulfonimidoyl)phenyl)nicotinamide], for which the IC50 was in the range of 5 to 50 nM under setting [1] and 5 to 50 nM under setting [2].

As for `Cc1c(Cl)c(C#N)nc(N2CCCC(F)(F)CC2)c1C(=O)Nc1cccc([S@](C)(=N)=O)c1` [Example 171, (R)-5-chloro-6-cyano-2-(4,4-difluoroazepan-1-yl)-4-methyl-N-(3-(S-methylsulfonimidoyl)phenyl)nicotinamide], the IC50 was not above 5 nM under setting [1] and not above 5 nM under setting [2].

In the case of `Cc1c(-c2cnn(C)c2)cnc(N2CCCC(F)(F)CC2)c1C(=O)Nc1cccc([S@@](C)(=O)=NC(=O)CO)c1` [Example 229, (R)-2-(4,4-difluoroazepan-1-yl)-N-(3-(N-(2-hydroxyacetyl)-S-methylsulfonimidoyl)phenyl)-4-methyl-5-(1-methyl-1H-pyrazol-4-yl)nicotinamide], the IC50 reads like this: under setting [1], 5 to 50 nM; under setting [2], 5 to 50 nM.

With `Cc1c(C(F)(F)F)cnc(N2CCCC(F)(F)CC2)c1C(=O)Nc1cccc([S@@](C)(=O)=NC(=O)CN)c1` [Example 181, (R)-2-(4,4-difluoroazepan-1-yl)-N-(3-(N-glycyl-S-methylsulfonimidoyl)phenyl)-4-methyl-5-(trifluoromethyl)nicotinamide], the IC50 runs as follows: under setting [1], not above 5 nM; under setting [2], not above 5 nM.

As to `C[S@](=N)(=O)c1cccc(NC(=O)c2c(N3CCCC(F)(F)CC3)cnc(C(F)(F)F)c2Cl)c1` [Example 207, (S)-3-chloro-5-(4,4-difluoroazepan-1-yl)-N-(3-(S-methylsulfonimidoyl)phenyl)-2-(trifluoromethyl)isonicotinamide], the half-maximal inhibitory concentration (IC50) reads like this: under setting [1], 5 to 50 nM; under setting [2], 5 to 50 nM.

As for `Cc1c(C(F)(F)F)nnc(N2CCCC(F)(F)CC2)c1C(=O)Nc1ccnc(S(C)(=N)=O)c1` (centres unmarked) [Example 102, 3-(4,4-difluoroazepan-1-yl)-5-methyl-N-(2-(S-methylsulfonimidoyl)pyridin-4-yl)-6-(trifluoromethyl)pyridazine-4-carboxamide], the IC50 by setting is: under setting [1], 5 to 50 nM; under setting [2], 5 to 50 nM.

For the molecule `Cc1nc(N2CCC3(CC2)CC3)c(C(=O)Nc2cccc([S@@](C)(=N)=O)c2)cc1Cl` [Example 27, (S)-5-Chloro-6-methyl-N-(3-(S-methylsulfonimidoyl)phenyl)-2-(6-azaspiro[2.5]octan-6-yl)nicotinamide], the IC50 by setting is: under setting [1], not above 5 nM; under setting [2], not above 5 nM.

In the case of `Cc1c(-c2cnn(C)c2)ccc(N2CCCC(F)(F)CC2)c1C(=O)Nc1cccc([S@](C)(=N)=O)c1` [Example 78, (R)-6-(4,4-difluoroazepan-1-yl)-2-methyl-3-(1-methyl-1H-pyrazol-4-yl)-N-(3-(S-methylsulfonimidoyl)phenyl)benzamide], the IC50 was more than 200 nM under setting [1] and more than 200 nM under setting [2].
